In patent US20090317372A1, “SMALL MOLECULES FOR THE REDUCTION OF HIGH BLOOD GLUCOSE LEVEL” (priority 2008, published 2009):

B1: PALP: highly purified placental alkaline phosphatase (protein, UniProt P05187 23-506, looked up)
Alkaline phosphatase, …: IIPVEEENPDFWNREAAEALGAAKKLQPAQTAAKNLIIFLGDGMGVSTVTAARILKGQKKDKLGPEIPLAMDRFPYVALSKTYNVDKHVPDSGATATAYLCGVKGNFQTIGLSAAARFNQCNTTRGNEVISVMNRAKKAGKSVGVVTTTRVQHASPAGTYAHTVNRNWYSDADVPASARQEGCQDIATQLISNMDIDVILGGGRKYMFRMGTPDPEYPDDYSQGGTRLDGKNLVQEWLAKRQGARYVWNRTELMQASLDPSVTHLMGLFEPGDMKYEIHRDSTLDPSLMEMTEAALRLLSRNPRGFFLFVEGGRIDHGHHESRAYRALTETIMFDDAIERAGQLTSEEDTLSLVTADHSHVFSFGGYPLRGSSIFGLAPGKARDRKAYTVLLYGNGPGYVLKDGARPDVTESESGSPEYRQQSAVPLDEETHAGEDVAVFARGPQAHLVHGVQEQTFIAHVMAFAACLEPYTACDLAPPAGTTD

Legend:
Type in all cases: in vivo
C57/BL/6 mice [1] = assay: Glucose tolerance test with normal mice, CCcompound1 and sub-optimal insulin; conditions: CCcompound1 4.5-mg/kg i.p. 60 min and/or insulin 0.02 IU 15 min prior to glucose
Experimental: In this experiment, a sub-optimal dose of insulin (0.02 international unit-IU) was used to probe if CCcompound1 indeed can enhance the effect of insulin on blood glucose. Again C57/BL/6 female mice weighing 22-23-g and fasted for 14 hours prior to i.p. glucose administration (3-g/kg), were used. None of the animals received any food during the experiment other than glucose. The animals received i.p. injections of 4.5-mg/kg of CCcompound1 and/or 0.02 Unit insulin 60 min and 15 min prior to glucose administration, respectively. Blood samples were taken and glucose concentrations measured as indicated earlier. Each group included six animals. The data are the mean±std. dev. of 6 determinations, i.e. one determination with each of the six animals.

[2] = system: BDF1 (C57/BL/6 female×DBA/2 male) mice; assay: Glucose tolerance test with BDF1 mice, CCcompound1 and sub-optimal insulin; conditions: CCcompound1 4.5-mg/kg i.p. −15 min and/or insulin 0.02 IU −10 min
Experimental: In this experiment again, a sub-optimal dose of insulin was used to probe if CCcompound1 can enhance the effect of insulin on blood glucose. This time first generation hybrid BDF1 (C57/BL/6 female×DBA/2 male) adult (10-12 weeks old) male mice weighing 28-30-g and fasted for 14 hours before i.p. glucose administration (3-g/kg) were used. These mice were […] than mice in the previous experiment described under Example 5. None of the animals received any food during the experiment other than glucose. The animals received i.p. injections of 4.5-mg/kg of CCcompound1 and 0.02 IU of insulin 15 min and 10 min prior to glucose administration. Blood samples were taken and glucose concentrations in whole blood samples determined as described earlier. Each group included six animals. The data are the mean±std. dev. of 6 determinations, i.e. one determination with each of the six animals.

ob/ob mice [3] = assay: Blood glucose level of normally fed ob/ob obese diabetic mice, daily treatment; conditions: second experiment
From the text: Adult female leptin-deficient ob/ob obese diabetic inbred specified pathogen free (SPF) hygienic category mice from Charles River VRF1 were used for these experiments. The mice weighed 32-36-g at arrival. The ob/ob obese mouse is an extensively used animal model for the study of non-insulin-dependent-diabetes mellitus (NIDDM). The mutation was propagated in the C57BL/6J (BL/6) inbred strain. Homozygous obese (ob/ob) animals developed hyperglycemia due to insulin resistance, hyperinsulinemia (to compensate for reduced insulin action), and obesity. In these animals gluconeogenesis is enhanced despite their hyperinsulinemic state. The animals were kept in macrolon cages at 22-24° C. and 50-60% humidity, with lighting regimen of 12/12 h light dark. They had free access to tap water and were fed a sterilized standard diet (Charles River VRF1, autoclavable). The animals were cared for according to the “Guiding Principles for the Care and Use for Animals” based upon the Helsinki declaration. The ob/ob mice gained weight rapidly and developed a marked obesity by 5-6 weeks of age. […] When arrived they were 5 weeks old (when the experiment was performed with CCcompound1) or 4.5 weeks old (when the experiment was performed with CCcompound3 and CCcompound19). The treatments started 8 days later in the experiment performed with CCcompound1 and 10 days later in the experiment performed with CCcompound3 and CCcompound19. Experimental groups selected from ob/ob mice were injected subcutaneously (s.c.) at regular intervals once daily for 14 days with CCcompound1 or an analog (CCcompound3 or CCcompound19) each at the dose of 4.5-mg per kg. Control groups were also selected from ob/ob mice that remained untreated during the entire length of the experiment. In the first experiment, for which the data is presented in TABLE 11, blood samples were taken either 45 min or 6 hours after treatments with CCcompound1. In the second experiment, for which the data is presented in TABLE 12, blood samples were taken 45 min after treatments with the analogs of CCcompound1. Blood glucose was determined with the Fast Glucose C test. Both the untreated and CC compound-treated groups included 5 animals. The data are the mean±std. dev.

C57/BL/6 mice [4] = assay: Glucose tolerance test with normal mice (CC1, CC3, CC19); conditions: for Reduction of blood glucose level: 30th min of test period
Experimental: C57/BL/6 female mice weighing 22-23-g and fasted for 14 hours before intraperitoneal (i.p.) administration of glucose (3-g/kg) were used. None of the animals received any food during the experiment other than glucose. The animals received i.p. injections of 4.5-mg/kg of CCcompound1, CCcompound3, or CCcompound19 either 1 hour or 24 hours prior to glucose administration as indicated in TABLE 3. Blood samples were taken from the eyes (canthus), and glucose concentrations in whole blood samples were immediately measured with the Fast Glucose C test. Each group included six animals. The data, shown in TABLE 3, are the mean±std. dev. of 6 determinations, i.e. one determination with each of the six animals. In this and all subsequent experiments the values at 0 min reflect glucose concentration in blood samples collected 1-5 minutes prior to the administration of glucose.

ob/ob mice [5] = assay: Blood glucose in ob/ob mice, CCcompound1 combined with human proteins AGP and TF
Experimental: For each experimental group, ob/ob mice were chosen (5 mice in each group) that were 43 days old and weighed on average 40.3±1.9-g on the first day of experiment. Three groups of mice were treated with s.c. injection of 4.5-mg/kg CCcompound1 once every day for 17 days. Mice in one of these CCcompound1-treated groups received no other treatment, and their blood was drawn for glucose analysis on day 14 and 17 exactly 45 min after treatment. The second CCcompound1-treated group also received 0.5-mg/mouse (˜11 mg/kg) dose of greater than 98% pure commercial human transferrin [catalogue number, T 3309 according to 2004/2005 Sigma catalogue]. In this second group the blood was drawn on day 14 just prior to TF administration and on day 17 two hours after TF and 45 min after CCcompound1 administration. An additional group of animals received only TF treatment. The third CCcompound1-treated group also received 1.2-mg/mouse (26.6-mg/kg) dose of >99% pure human AGP [catalogue number G 9885 according to 2004/2005 Sigma catalogue]; in this group the blood was drawn on day 14 just prior to AGP administration and on day 17 two hours and 45 minutes after administration of AGP and CCcompound1, respectively. An additional group of animals received only AGP treatment, and yet another group of animals received no treatment at all. On day 1, prior to any treatment, the blood glucose level of all animals was in the range of 7.2-7.9 mM.

Wistar rats = assay: Glucose tolerance test in starved rats
Experimental: Male Wistar rats weighing 240-270-g were divided into 3 groups, each group consisting of 6 or 7 animals. To ensure standard conditions animals were starved for 14 hours before the start of the experiment. CCcompound1 and CCcompound3 were injected (i.p.) 30 min prior to injecting 3-g/kg of glucose (i.p.). Blood sugar values of the experimental animals were measured with the Fast Glucose C-test; blood samples were taken from the tail. The data are the mean±std. dev. of 6-7 determinations, i.e. one determination with each of the 6-7 animals in the respective groups.

C57/BL/6 mice [6] = assay: Glucose tolerance test with normal mice, PALP and CCcompound1 combined; conditions: PALP 0.4 mg/mouse i.p. −24 h
Experimental: Female C57/BL/6 mice weighing 24-26-g and fasted for 12 hours before i.p. glucose administration (3 g/kg) were used. None of the animals received any food during the experiment other than glucose. One group of animals was untreated while animals in other groups received subcutaneous (s.c.) injections of 2.0 or 4.5-mg/kg of CCcompound1 either 30 min or 60 min prior to glucose administration as indicated in TABLE 5. Two groups of animals received i.p. injections of 0.4-mg per mouse (˜16-mg per kg) of highly purified PALP 24 hours prior to glucose administration. Purification of PALP was described in detail earlier [Z. Kiss, U.S. Pat. No. 7,048,914, “Placental Alkaline Phosphatase to Control Diabetes]. Animals in one of the PALP treated group also received s.c. injections of 4.5-mg/kg of CCcompound1 30 min prior to glucose administration as indicated in TABLE 5. Blood samples were taken and glucose concentrations were immediately measured as described earlier. Each group included five animals. The data are the mean±std. dev. of 5 determinations, i.e. one determination with each of the five animals. “-min” and “-h” indicates the length of period in minutes and hours, respectively, elapsed between the administration of test agents (first) and glucose (second).

[7] = 4.5-mg/kg s.c. once daily, 45 min after treatment, day 1
[8] = 4.5-mg/kg s.c. once daily, day 0
[9] = 4.5-mg/kg i.p. 1 h prior to glucose 3-g/kg i.p., 0 min
[10] = 4.5-mg/kg i.p. 1 h prior to glucose
[11] = 4.5-mg/kg i.p. 1 h prior to glucose, 30 min
[12] = 4.5-mg/kg i.p. 1 h prior to glucose, 60 min
[13] = 4.5-mg/kg i.p. 1 h prior to glucose, 120 min
[14] = 4.5-mg/kg i.p. 1 h prior to glucose, 180 min
[15] = 14th day, CC1 4.5-mg/kg s.c. daily, 45 min after treatment, blood drawn just prior to AGP or TF administration
[16] = 17th day, 45 min after CC1 4.5-mg/kg s.c., two hours after TF 0.5-mg/mouse or AGP 1.2-mg/mouse

| Molecule | Blood glucose (ob/ob mice [3]; [7]) [mM] | Blood glucose (ob/ob mice [3]; [8]) [mM] | Blood glucose (ob/ob mice [3]; 45 min after treatment, day 5) [mM] | Blood glucose (ob/ob mice [3]; 45 min after treatment, day 10) [mM] | Blood glucose (ob/ob mice [3]; 45 min after treatment, day 15) [mM] | Blood glucose (C57/BL/6 mice [4]; [9]) [mM] | Reduction of blood glucose level (C57/BL/6 mice [4]; [10]) [%] | Blood glucose (C57/BL/6 mice [4]; [11]) [mM] | Blood glucose (C57/BL/6 mice [4]; [12]) [mM] | Blood glucose (C57/BL/6 mice [4]; [13]) [mM] | Blood glucose (C57/BL/6 mice [4]; [14]) [mM] | Blood glucose level (ob/ob mice [5]; [15]) [mM] | Blood glucose level (ob/ob mice [5]; [16]) [mM] | also measured |
| --- | --- | --- | --- | --- | --- | --- | --- | --- | --- | --- | --- | --- | --- | --- |
| Insulin: insulin, sub-optimal dose 0.02 IU [reference compound] |  |  |  |  |  |  |  |  |  |  |  |  |  | Blood glucose (C57/BL/6 mice [1]; 0 min): 2.1 ± 0.6 mM; Blood glucose (C57/BL/6 mice [1]; 30 min): 7.2 ± 0.4 mM; Blood glucose (C57/BL/6 mice [1]; 60 min): 5.6 ± 0.5 mM; Blood glucose (C57/BL/6 mice [1]; 120 min): 3.8 ± 0.4 mM; Blood glucose ([2]; 0 min): 3.1 ± 0.4 mM; Blood glucose ([2]; 30 min): 6.4 ± 0.5 mM; Blood glucose ([2]; 60 min): 5.6 ± 0.3 mM |
| C[N+](C)(C)CCC=C1c2ccccc2Sc2ccccc21.[I-] [CCcompound 19, N,N,N-trimethyl-3-(9H-thioxanthen-9-ylidene)-propane-1-aminium iodide] | 6.2 ± 0.9 | 9.3 ± 0.7 | 7.7 ± 0.5 | 9.3 ± 0.9 | 10.4 ± 1.0 | 2.1 ± 0.5 | 23 | 5.7 ± 0.4 | 4.6 ± 0.6 | 3.1 ± 0.2 | 2.2 ± 0.4 |  |  |  |
| AGP: >99% pure human α1-acid glycoprotein, Sigma G 9885 |  |  |  |  |  |  |  |  |  |  |  | 16.0 ± 0.5 | 12.4 ± 0.6 |  |
| CC[N+](C)(CC)CCOCc1ccc2sc3ccccc3c(=O)c2c1 [CCcompound 3] | 7.6 ± 0.7 | 9.1 ± 0.6 | 8.6 ± 0.9 | 11.0 ± 0.6 | 12.6 ± 0.5 | 1.7 ± 0.5 | 19 | 6.6 ± 0.3 | 5.0 ± 0.2 | 3.6 ± 0.5 | 2.7 ± 0.4 |  |  | Blood glucose (Wistar rats; rats starved 14 h, i.p. 30 min prior to glucose 3-g/kg i.p., 0 min): 4.73 ± 0.24 mM; Blood glucose (Wistar rats; rats, i.p. 30 min prior to glucose, 30 min): 9.36 ± 0.43 mM; Blood glucose (Wistar rats; rats, i.p. 30 min prior to glucose, 60 min): 6.66 ± 0.33 mM; Blood glucose (Wistar rats; rats, i.p. 30 min prior to glucose, 90 min): 5.71 ± 0.38 mM; Blood glucose (Wistar rats; rats, i.p. 30 min prior to glucose, 120 min): 5.43 ± 0.60 mM |
| TF: greater than 98% pure commercial human transferrin, Sigma T 3309 |  |  |  |  |  |  |  |  |  |  |  | 15.8 ± 0.4 | 13.6 ± 0.7 |  |
| B1 |  |  |  |  |  |  |  |  |  |  |  |  |  | Blood glucose (C57/BL/6 mice [6]; 0 min): 3.7 ± 0.5 mM; Blood glucose (C57/BL/6 mice [6]; 30 min): 6.8 ± 0.3 mM; Blood glucose (C57/BL/6 mice [6]; 60 min): 5.3 ± 0.4 mM; Blood glucose (C57/BL/6 mice [6]; 120 min): 4.3 ± 0.5 mM |
